Assay results reported in US20240299486A1, “ADDRESSING INJECTION SITE REACTIONS ASSOCIATED WITH THE ADMINISTRATION OF ELAMIPRETIDE” (STEALTH BIOTHERAPEUTICS INC., priority 2022, published 2024).
“Also recorded” adds a separate entry of the source.

Assays:
healthy subjects [1] = assay: Phase 1 crossover study: safety (TEAEs, vital signs, ECG); assay type: in vivo, human; details: Arm 6, 50 mg orally 2 hours prior to 60 mg SQ elamipretide, 10 subjects
Procedure: The secondary endpoints of this study consisted of PK and safety assessments. After measuring absorption and distribution PK of elamipretide and its metabolites (M1 and M2), comparisons of each Tmax, Cmax, and AUC0-6 following administration of elamipretide with each separate intervention versus Tmax, Cmax, and AUC0-6 following administration of elamipretide alone were performed. Safety assessments consisted of comparison of treatment emergent adverse events (TEAEs) reported following administration of elamipretide with each separate intervention versus TEAEs reported following administration of elamipretide alone. Safety measurements included TEAEs, clinical laboratory tests (e.g., serum chemistry and hematology), 12-lead ECGs, physical exams, and vital signs.

healthy subjects [2] = assay: Phase 1 crossover study: self-assessed injection site reactions; assay type: in vivo, human; details: 60 mg SQ elamipretide with or without the intervention, across all timepoints, all participants, n = 80
Procedure: (§1) • This Phase 1, open-label, 6-arm crossover study included 10 healthy subjects ≥18 and ≤65 years of age. • All subjects received 60 mg of SQ elamipretide to alternating quadrants of the abdomen on each of 6 occasions (FIG. 3), with or without the interventions listed in Table 2. • For each treatment arm, ISR clinical and self-assessments were performed pre-elamipretide administration and at 0.5, 1, 2, 4, 6, 12, 24, and 48 hours after each elamipretide dose. • Blood samples for plasma concentrations of elamipretide and its metabolites were also collected pre-dose and at 0.25, 0.5, 1, 2, 4, and 6 hours post-elamipretide dose. • Primary endpoints consisted of comparisons of the grading from the clinical assessments and the self-assessments of each ISR parameter following administration of elamipretide with each separate intervention versus that of elamipretide alone. • Secondary endpoints consisted of comparison of various pharmacokinetic (PK) parameters and adverse events following administration of elamipretide with each separate intervention versus that of elamipretide alone.
(§2) After the screening period (up to 28 days) in this phase 1, open-label, 4-week, 6-part, crossover study, all eligible subjects received 60 mg (0.75 mL) of SC elamipretide to alternating quadrants of the abdomen on each of 6 occasions, with or without potential ISR interventions. The first treatment arm (Arm 1) commenced on Day 1 with administration of elamipretide only, followed by the remaining treatment arms (Arms 2-6) with the following potential mitigations: mometasone furoate, 0.1% ointment, applied once under a hydrocolloid occlusive dressing (DuoDERM Extra Thin) 7 days prior to elamipretide administration (Arm 2); ice application at the elamipretide injection site 5 minutes pre- and post-drug administration (Arm 3); tacrolimus 0.1% ointment applied 15 minutes pre-drug dosing (Arm 4); doxepin 5% cream applied 15 minutes pre-elamipretide administration (Arm 5); and diphenhydramine 50 mg orally taken 2 hours prior to administration (Arm 6). For each treatment arm, blood samples for plasma concentrations of elamipretide and its metabolites were collected pre-dose and at 0.25, 0.5, 1, 2, 4, and 6 hours post-elamipretide dose. Vital signs were recorded pre-dose and at 0.5 and 6 hours post-elamipretide administration. ISR clinical and self-assessments were performed pre-elamipretide administration and at 0.5, 1, 2, 4, 6, 12, 24, and 48 hours after each elamipretide dose. Injection sites were photographed at 0.5, 1, 2, 4, and 12 hours post-elamipretide dose.
(§3) The primary endpoints of this study were comprised of the following efficacy measures: clinical assessments and subject self-assessments. Specifically, the primary endpoints consisted of comparisons of the grading of each ISR parameter following administration of elamipretide with each separate intervention versus the grading of each ISR parameter following administration of elamipretide alone. For clinical assessments, the clinical staff used a standard procedure adapted from the Division of Aids Table for Grading the Severity of Adult and Pediatric Adverse Events to score pain, erythema, induration, and pruritus using a 4-point scale based on severity (0=None, 1=Mild, 2=Moderate, 3=Severe, 4=Potentially Life Threatening). The self-assessments were based on a questionnaire to determine how bothered the patient was following each injection of elamipretide and included the following parameters: pain, burning sensation, cold sensation, itching, redness, swelling, and bruising.
(§4) All statistical analyses were performed using SAS GRID Linux/SAS Studio (Version 9.4, or higher). PK parameters for elamipretide and its metabolites, M1 and M2, were summarized using descriptive statistics.

healthy subjects [3] = assay: Phase 1 crossover study: clinically assessed injection site reactions
Procedure: as §1, §2, §3, §4

[4] = system: control (non-MRGPRX2 expressing) Chem-1 cells; details: parent Chem-1 cells, Fluo-4
Procedure: MRGPRX2 expressing and control (non-MRGPRX2 expressing) Chem-1 cells lines were obtained from Discovery Services, EuroFins. Cells were cultured in Dulbecco's Modified Eagle Medium (DMEM) high glucose medium (4.5 g/L) with 10% fetal bovine serum (FBS), non-essential amino acids, and N-2-hydroxyethylpiperazine-N′-2-ethanesulfonic acid (HEPES) buffer (pH 7.0-7.6). Geneticin (G418) was used for selection of MRGPRX2-expressing Chem-1 cells. Cells were maintained at 37° C. at 5% CO2. Cells were seeded to a glass bottom 96-well plates at a density of 50,000 per well (Cellvis). Cells were loaded with Fluo-4 AM for 30 minutes at 37° C. at a concentration of 2.5 μM. Cells were washed once with Dulbecco's phosphate buffered saline (DPBS). Cells were rested at room temperature for 30 minutes before use and washed with DPBS. Cells were resuspended in 50 μl phosphate buffered saline (PBS) with calcium and magnesium. […] Plates were read immediately with a Biotek plate reader. Readings were taken every 6 seconds for 2 minutes.

MRGPRX2 receptor = target: T1, MRGPRX2 receptor (Homo sapiens, UniProt Q96LB1); assay: Fluo-4 calcium assay in MRGPRX2 expressing Chem-1 cells; assay type: cell-based; details: Chem-1 cells, Fluo-4
T1 construct: host or cells: Chem-1 cells (G418-selected)
T1 sequence (Q96LB1 1-330): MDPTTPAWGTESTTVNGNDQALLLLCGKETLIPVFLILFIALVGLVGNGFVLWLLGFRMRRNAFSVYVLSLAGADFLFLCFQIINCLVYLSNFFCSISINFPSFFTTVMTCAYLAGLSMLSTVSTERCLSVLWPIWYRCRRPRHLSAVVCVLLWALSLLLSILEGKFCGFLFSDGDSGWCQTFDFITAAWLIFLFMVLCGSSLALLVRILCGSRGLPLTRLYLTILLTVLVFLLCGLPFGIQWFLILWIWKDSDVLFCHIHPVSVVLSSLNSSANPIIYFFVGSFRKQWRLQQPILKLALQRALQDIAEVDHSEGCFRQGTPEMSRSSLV

[5] = 60 mg SQ elamipretide with or without the intervention, across all timepoints, all participants, n = 80
[6] = clinical assessment, vs elamipretide alone

CN(C)CCOC(c1ccccc1)c1ccccc1 [Diphenhydramine] was tested, and the “mild somnolence, incidence” value (healthy subjects [1]) was 50%, the “mild somnolence, number of subjects” value (healthy subjects [1]) was 5 subjects and the “Self-assessed Bruising, (%) of Reported Reactions” value (healthy subjects [2]) was “(1.3) %”. The “Self-assessed Bruising, Number of Reported Reactions” value (healthy subjects [2]) was 1, the “Self-assessed Burning sensation, (%) of Reported Reactions” value (healthy subjects [2]) was “(1.3) %” and the “Self-assessed Burning sensation, Number of Reported Reactions” value (healthy subjects [2]) was 1. The “Self-assessed Cold Sensation, Number of Reported Reactions” value (healthy subjects [2]) was 0.0, the “Self-assessed Itching, (%) of Reported Reactions” value (healthy subjects [2]) was “(11.3) %” and the “Self-assessed Itching, Number of Reported Reactions” value (healthy subjects [2]) was 9. For the same compound, the “Self-assessed Pain, (%) of Reported Reactions” value (healthy subjects [2]) was “(2.5) %”, the “Self-assessed Pain, Number of Reported Reactions” value (healthy subjects [2]) was 2 and the “Self-assessed Redness, (%) of Reported Reactions” value (healthy subjects [2]) was “(25.0) %”. The “Self-assessed Redness, Number of Reported Reactions” value (healthy subjects [2]) was 20, the “Self-assessed Swelling, (%) of Reported Reactions” value (healthy subjects [2]) was “(6.3) %” and the “Self-assessed Swelling, Number of Reported Reactions” value (healthy subjects [2]) was 5. For the same compound, the “Clinically assessed Erythema or redness, (%) of Reported Reactions” value (healthy subjects [3]; [5]) was “(26.3) %”, the “Clinically assessed Erythema or redness, Number of Reported Reactions” value (healthy subjects [3]; [5]) was 21 and the “Clinically assessed Induration or swelling, (%) of Reported Reactions” value (healthy subjects [3]; [5]) was “(6.3) %”. The “Clinically assessed Induration or swelling, Number of Reported Reactions” value (healthy subjects [3]; [5]) was 5, the “Clinically assessed Pain or tenderness, (%) of Reported Reactions” value (healthy subjects [3]; [5]) was “(2.5) %” and the “Clinically assessed Pain or tenderness, Number of Reported Reactions” value (healthy subjects [3]; [5]) was 2. For the same compound, the “Clinically assessed Pruritis, (%) of Reported Reactions” value (healthy subjects [3]; [5]) was “(10.0) %”, the “Clinically assessed Pruritis, Number of Reported Reactions” value (healthy subjects [3]; [5]) was 8 and the “Overall effect of the intervention on ISRs compared to elamipretide alone” value (healthy subjects [3]; clinical and self-assessments, 60 mg SQ elamipretide, vs Arm 1 (no intervention)) was “most reduced; also recorded: potential in reducing induration; also recorded: Improvement”. The “incidence of induration at 0.5 hours post-elamipretide dose” value (healthy subjects [3]; [6]) was “trend to significance in reduction” and the “incidence of induration at 1 hour post-elamipretide dose” value (healthy subjects [3]; [6]) was “significantly decreased incidence”.

C[C@H](CCC(=O)O)C[C@H](C)C[C@H](C)C(=O)/C=C(\O)[C@H](C)C[C@H](C)C/C=C/[C@@H](C)[C@@H](O)[C@@H](C)[C@@H](O)C[C@@H]1CC[C@@](C)([C@H]2CC[C@@](C)([C@@H](C)O)O2)O1 [Ionomycin] was tested, and the “effect on cells lacking the MRGPRX2 receptor (calcium mobilization)” value [4] was “generates a calcium response” and the “activation of the MRGPRX2 expressing cells (calcium mobilization)” value (MRGPRX2 receptor) was “generates a calcium response”.
